Tested on: naïve B cells (IgM+ IgD+ CD27− IgG− IgA−)
Assay: in vitro acquisition of natural switch region inserts in stimulated naïve B cells with DNA repair inhibitors
Type: cell-based, human
Conditions: Olaparip 4 nM or SCR7 100 nM in culture medium vs DMSO control; B cells stimulated with K562L (CD40L) and IL4; harvested day 10; 50 000 sorted IgG switched B cells; γ-switch region PCR and MinION sequencing
Procedure: To this end, B cells were isolated by magnetic beads using anti-CD19 beads, followed by FACS-sorting and selection of naïve B cells (IgM^+ IgD^+ CD27^− IgG^− IgA^−). Cells were plated in 48 well plates at concentrations of 50 000 B cells/ml and stimulated with 25 000 irradiated K562L/ml and 8 ng/ml IL4. The DNA repair inhibitor Olaparip (4 nM), SCR7 (100 nM) or DMSO (1:100) as control were added to the culture medium. At day 3 and day 6 the culture medium was replaced which fresh medium supplemented with IL4 and inhibitors. Cells were harvested at day 10 and stained with fluorescently labeled anti-CD19 and anti-IgG antibodies. Switched IgG B cell were sorted by flow cytometry and gDNA was isolation using a commercial kit. Genomic DNA of 50 000 sorted cells were used for γ-switch region PCR amplification and MINION sequencing as described above. Inserts frequencies were analyzed with a bioinformatics pipeline (Pieper K, Tan J, Piccoli L, Foglierini M, Barbieri S, Chen Y, Silacci-Fregni C, Wolf T, Jarrossay D, Anderle M, Abdi A, Ndungu F M, Doumbo O K, Traore B, Tran T M, Jongo S, Zenklusen I, Crompton P D, Daubenberger C, Bull P C, Sallusto F, Lanzavecchia A: Public antibodies to malaria antigens generated by two LAIR1 insertion modalities. Nature. 2017. Aug. 31; 548(7669):597-601).

Compound	natural switch insert frequencies
O=C(c1cc(Cc2n[nH]c(=O)c3ccccc23)ccc1F)N1CCN(C(=O)C2CC2)CC1 [Olaparib]	elevated
SCR7	decreased

From US20210254106A1, “ENGINEERING B LYMPHOCYTES BY UTILIZING ENDOGENOUS ACTIVATION-INDUCED CYTIDINE DEAMINASE” (INSTITUTE FOR RESEARCH IN BIOMEDICINE, priority 2018, published 2021)
